Experimental data taken from ChEMBL document CHEMBL1201862, “PubChem BioAssay data set” (2004).
Activity calls are given as the source filed them.

What was measured:
[1] = biological target: Metabotropic glutamate receptor 7 (Homo sapiens, UniProt Q14831); experiment: mGlu7 positive allosteric modulators, dose response, cell-based, calcium mobilization, Galpha15 (AID 743384); assay type: functional
[2] = biological target: Phospholipase D1 (Homo sapiens, UniProt Q13393); experiment: PLD1 Cellular Concentration Response Study.; assay type: functional
Phospholipase D1, sequence (Q13393 whole entry): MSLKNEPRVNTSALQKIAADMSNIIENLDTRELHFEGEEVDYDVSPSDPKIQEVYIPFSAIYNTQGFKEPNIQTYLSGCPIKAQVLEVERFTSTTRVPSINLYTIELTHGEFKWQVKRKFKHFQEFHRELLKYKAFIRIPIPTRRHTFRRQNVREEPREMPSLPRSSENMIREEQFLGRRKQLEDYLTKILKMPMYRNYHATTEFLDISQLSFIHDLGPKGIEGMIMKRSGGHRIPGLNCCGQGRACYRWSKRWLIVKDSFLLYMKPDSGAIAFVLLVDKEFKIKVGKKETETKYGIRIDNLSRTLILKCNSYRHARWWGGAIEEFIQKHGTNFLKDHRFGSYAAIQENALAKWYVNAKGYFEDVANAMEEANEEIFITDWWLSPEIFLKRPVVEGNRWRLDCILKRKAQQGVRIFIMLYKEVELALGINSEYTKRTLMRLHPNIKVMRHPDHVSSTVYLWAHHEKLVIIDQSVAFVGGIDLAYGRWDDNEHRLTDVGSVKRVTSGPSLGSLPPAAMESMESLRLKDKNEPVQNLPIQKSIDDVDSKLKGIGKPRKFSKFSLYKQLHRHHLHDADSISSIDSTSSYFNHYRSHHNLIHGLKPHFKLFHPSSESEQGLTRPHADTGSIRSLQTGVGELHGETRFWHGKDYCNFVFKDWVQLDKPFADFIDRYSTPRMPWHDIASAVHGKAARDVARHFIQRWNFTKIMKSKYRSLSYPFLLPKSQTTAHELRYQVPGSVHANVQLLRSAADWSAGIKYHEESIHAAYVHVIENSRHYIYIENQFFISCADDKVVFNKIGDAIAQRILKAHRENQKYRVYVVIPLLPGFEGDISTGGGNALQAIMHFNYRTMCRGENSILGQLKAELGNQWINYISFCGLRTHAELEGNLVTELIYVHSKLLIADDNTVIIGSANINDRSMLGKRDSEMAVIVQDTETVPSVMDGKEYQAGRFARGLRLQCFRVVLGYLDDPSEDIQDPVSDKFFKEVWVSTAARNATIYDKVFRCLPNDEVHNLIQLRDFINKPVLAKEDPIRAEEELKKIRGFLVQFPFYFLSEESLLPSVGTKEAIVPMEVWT

[3] = biological target: T1, Phospholipase D2 (Homo sapiens, UniProt O14939); experiment: PLD2 Cellular Concentration Response Study.; assay type: functional
T1 sequence (O14939 whole entry): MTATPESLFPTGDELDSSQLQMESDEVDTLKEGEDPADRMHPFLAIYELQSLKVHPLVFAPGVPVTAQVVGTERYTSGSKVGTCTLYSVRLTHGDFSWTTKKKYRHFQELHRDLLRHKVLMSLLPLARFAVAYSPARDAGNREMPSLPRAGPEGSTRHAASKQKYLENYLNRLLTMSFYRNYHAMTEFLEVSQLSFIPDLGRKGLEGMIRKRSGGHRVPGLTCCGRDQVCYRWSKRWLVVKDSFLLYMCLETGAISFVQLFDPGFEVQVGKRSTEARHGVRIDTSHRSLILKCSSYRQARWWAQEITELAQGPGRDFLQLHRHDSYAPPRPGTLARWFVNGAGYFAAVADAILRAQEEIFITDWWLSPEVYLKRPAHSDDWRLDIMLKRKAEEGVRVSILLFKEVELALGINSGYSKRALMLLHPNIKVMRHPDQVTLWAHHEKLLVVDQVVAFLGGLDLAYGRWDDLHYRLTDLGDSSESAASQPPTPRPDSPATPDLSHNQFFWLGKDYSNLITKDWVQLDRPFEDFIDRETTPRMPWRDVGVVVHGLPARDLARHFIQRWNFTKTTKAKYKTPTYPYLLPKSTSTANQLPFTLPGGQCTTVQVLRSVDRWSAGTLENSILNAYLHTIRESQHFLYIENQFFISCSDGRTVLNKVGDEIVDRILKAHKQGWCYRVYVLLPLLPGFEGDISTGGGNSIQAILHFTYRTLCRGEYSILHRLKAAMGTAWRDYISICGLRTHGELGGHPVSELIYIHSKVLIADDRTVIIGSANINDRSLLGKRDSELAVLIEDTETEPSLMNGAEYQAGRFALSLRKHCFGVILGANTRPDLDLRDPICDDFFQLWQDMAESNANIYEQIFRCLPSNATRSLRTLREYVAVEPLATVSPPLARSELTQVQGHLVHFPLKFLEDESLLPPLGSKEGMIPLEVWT

[4] = biological target: T1, Phospholipase D2; experiment: Discovery of PLD2 inhibitors using the Purified Enzyme Concentration Response Assay.; assay type: functional
[5] = P. falciparum late gametocyte killing, dose response, luminescence (AID 1117278); assay type: functional, cell-based;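 also: gametocytes exposed to compound for 24 hours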
[6] = Jurkat T cell cytotoxicity, dose response, cytotoxicity control for P. falciparum gametocyte viability project, luminescence (AID 1117277); assay type: functional, cell-based;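 also: potency reflects loss of cellular ATP meaning fewer viable cells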
[7] = biological target: T2, Aminopeptidase N (Plasmodium falciparum FcB1/Columbia, UniProt O96935); experiment: P. falciparum M1AAP inhibitors, biochemical, fluorogenic H-Leu-NHMec substrate, 1536-well (AID 1445); design: species or system Plasmodium falciparum 3D7, 3D7
T2 sequence (O96935 whole entry): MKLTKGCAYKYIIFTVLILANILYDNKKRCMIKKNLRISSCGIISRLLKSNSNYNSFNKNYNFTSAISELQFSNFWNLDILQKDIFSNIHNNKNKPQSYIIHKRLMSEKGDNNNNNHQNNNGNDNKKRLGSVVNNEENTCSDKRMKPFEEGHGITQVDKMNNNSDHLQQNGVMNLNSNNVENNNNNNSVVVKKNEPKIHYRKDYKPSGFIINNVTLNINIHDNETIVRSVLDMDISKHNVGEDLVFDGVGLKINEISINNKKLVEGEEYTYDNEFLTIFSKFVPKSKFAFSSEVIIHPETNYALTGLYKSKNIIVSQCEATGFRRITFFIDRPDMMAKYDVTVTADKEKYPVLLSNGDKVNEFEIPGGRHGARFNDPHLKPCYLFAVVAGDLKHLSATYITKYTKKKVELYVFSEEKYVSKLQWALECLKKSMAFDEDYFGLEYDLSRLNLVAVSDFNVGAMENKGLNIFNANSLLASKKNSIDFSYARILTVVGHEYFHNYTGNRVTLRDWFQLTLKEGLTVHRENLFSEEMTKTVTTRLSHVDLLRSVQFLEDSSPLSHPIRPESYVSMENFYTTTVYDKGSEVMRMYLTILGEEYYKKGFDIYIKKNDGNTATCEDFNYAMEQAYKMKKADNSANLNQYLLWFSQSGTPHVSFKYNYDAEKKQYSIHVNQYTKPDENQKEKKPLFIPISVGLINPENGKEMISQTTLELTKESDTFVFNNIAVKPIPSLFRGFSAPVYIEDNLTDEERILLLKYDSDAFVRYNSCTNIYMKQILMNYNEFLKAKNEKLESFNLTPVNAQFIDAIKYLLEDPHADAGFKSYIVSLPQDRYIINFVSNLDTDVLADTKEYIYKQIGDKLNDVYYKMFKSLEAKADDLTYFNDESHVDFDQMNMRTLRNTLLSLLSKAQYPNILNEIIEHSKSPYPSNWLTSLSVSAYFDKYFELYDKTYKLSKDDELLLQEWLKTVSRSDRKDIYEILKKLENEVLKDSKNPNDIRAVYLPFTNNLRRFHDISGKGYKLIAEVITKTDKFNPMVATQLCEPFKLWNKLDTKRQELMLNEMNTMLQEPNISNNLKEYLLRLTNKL

[8] = NIH-3T3 fibroblast cytotoxicity, dose response, cytotoxicity control, cell-based, fluorescence, Alamar Blue, secondary assay (AID 2327); assay type: functional;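 also: NIH-3T3 mouse fibroblasts cultured with fluconazole at 8 µg/mL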
[9] = biological target: Bifunctional protein GlmU (Mycobacterium tuberculosis, UniProt P9WMN3); experiment: Inhibitors of Mycobacterial Glucosamine-1-phosphate acetyl transferase (GlmU). Secondary screen.; design: species or system Mycobacterium tuberculosis H37Rv
Bifunctional protein GlmU, sequence (P9WMN3 whole entry): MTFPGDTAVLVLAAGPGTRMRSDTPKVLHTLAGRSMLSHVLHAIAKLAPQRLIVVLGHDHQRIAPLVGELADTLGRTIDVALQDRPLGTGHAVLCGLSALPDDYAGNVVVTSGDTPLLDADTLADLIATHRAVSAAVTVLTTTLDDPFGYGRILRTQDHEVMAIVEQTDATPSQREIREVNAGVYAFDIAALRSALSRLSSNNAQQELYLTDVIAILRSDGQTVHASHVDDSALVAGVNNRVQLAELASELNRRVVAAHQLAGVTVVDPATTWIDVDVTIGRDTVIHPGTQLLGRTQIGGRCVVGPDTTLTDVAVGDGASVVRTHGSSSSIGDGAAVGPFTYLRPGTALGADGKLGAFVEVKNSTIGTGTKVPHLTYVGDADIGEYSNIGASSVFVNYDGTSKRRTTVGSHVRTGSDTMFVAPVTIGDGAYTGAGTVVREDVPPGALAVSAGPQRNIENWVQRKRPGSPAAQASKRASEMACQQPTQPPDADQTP

[10] = C. albicans growth with fluconazole, confirmation, fluorescence, retest (AID 2467); assay type: functional, cell-based
[11] = biological target: T3, Carboxy-terminal domain RNA polymerase II polypeptide A small phosphatase 1 (Homo sapiens, UniProt Q9GZU7); experiment: inhibitors of CTDSP1, concentration-response testing, biochemical assay, absorbance-based, actives from ultra-high-throughput screening (AID 540297); assay type: functional
T3 sequence (Q9GZU7 whole entry): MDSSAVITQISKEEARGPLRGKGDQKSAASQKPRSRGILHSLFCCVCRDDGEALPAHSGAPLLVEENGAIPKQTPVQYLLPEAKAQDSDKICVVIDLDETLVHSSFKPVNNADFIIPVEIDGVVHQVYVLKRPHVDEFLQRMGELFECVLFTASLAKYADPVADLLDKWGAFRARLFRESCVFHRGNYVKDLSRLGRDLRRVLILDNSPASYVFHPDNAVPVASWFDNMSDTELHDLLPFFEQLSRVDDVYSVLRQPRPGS

[12] = biological target: Genome polyprotein (dengue virus type 2, UniProt P29990); experiment: Dengue-2 NS5 methyltransferase inhibitors, primary screen, biochemical, confirmation dose response (AID 588689); assay type: functional
Genome polyprotein, sequence (P29990 2492-3391 limits assumed): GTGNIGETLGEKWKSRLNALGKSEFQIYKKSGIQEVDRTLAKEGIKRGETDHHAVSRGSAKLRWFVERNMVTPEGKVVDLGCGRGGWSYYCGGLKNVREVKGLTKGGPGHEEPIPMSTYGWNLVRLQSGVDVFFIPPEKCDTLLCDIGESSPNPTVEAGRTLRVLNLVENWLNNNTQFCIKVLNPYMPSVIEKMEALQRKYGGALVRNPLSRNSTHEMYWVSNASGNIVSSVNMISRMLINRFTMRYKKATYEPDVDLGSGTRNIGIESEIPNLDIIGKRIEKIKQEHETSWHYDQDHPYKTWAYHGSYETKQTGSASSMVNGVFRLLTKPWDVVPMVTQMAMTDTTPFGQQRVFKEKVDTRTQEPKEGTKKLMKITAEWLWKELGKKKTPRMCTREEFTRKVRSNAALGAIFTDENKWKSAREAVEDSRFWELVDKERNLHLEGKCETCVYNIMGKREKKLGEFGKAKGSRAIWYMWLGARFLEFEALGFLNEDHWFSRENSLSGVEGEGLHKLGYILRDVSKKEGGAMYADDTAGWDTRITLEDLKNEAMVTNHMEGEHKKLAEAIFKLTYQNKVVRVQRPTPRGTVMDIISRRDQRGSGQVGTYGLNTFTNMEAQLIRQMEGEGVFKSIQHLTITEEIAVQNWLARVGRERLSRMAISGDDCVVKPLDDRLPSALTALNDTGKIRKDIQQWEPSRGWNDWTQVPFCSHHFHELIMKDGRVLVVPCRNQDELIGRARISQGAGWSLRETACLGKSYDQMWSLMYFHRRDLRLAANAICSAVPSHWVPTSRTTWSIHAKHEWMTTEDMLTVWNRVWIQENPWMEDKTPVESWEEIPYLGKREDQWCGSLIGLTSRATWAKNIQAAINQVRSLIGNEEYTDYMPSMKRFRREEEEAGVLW

Metabotropic glutamate receptor 7, sequence (Q14831 whole entry): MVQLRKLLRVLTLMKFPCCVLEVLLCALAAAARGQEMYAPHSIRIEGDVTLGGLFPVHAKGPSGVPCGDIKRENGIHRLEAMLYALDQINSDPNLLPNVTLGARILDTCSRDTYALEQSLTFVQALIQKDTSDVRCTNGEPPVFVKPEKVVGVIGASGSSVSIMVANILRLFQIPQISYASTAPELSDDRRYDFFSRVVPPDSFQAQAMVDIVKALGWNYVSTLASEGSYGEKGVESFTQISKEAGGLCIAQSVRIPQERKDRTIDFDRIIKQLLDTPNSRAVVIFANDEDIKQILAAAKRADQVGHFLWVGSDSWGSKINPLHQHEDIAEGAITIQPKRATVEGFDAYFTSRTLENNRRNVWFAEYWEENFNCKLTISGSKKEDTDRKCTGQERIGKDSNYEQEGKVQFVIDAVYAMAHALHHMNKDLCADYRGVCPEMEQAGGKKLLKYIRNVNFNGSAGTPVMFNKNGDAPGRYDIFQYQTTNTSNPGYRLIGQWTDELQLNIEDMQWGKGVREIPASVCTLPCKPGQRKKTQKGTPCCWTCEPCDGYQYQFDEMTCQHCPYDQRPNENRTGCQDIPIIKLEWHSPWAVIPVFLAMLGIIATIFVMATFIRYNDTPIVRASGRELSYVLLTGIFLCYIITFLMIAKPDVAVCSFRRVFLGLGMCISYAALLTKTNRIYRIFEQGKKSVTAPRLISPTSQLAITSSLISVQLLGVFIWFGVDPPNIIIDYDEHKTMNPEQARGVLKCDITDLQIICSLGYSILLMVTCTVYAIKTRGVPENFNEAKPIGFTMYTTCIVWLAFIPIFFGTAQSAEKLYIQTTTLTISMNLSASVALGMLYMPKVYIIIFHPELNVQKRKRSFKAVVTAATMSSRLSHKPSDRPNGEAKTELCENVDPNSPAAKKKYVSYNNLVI

## COC(=O)c1ccc(-n2c(C)cc(C(=O)COc3ccc(NC(C)=O)cc3)c2C)cc1
[1]
  EC50: 2.4 µM (active)

## O=C(NCCN1CCC2(CC1)C(=O)NCN2Cc1cccnc1)c1cc2ccccc2o1
[2]
  IC50: 20 µM (active)
[3]
  IC50: 2.5 µM (active)
[4]
  IC50: 12.5 µM (active)

## CSc1nccc(-c2cc(Cl)sc2Cl)n1
[5]
  IC50: > 109 µM (inactive)
[6]
  IC50: > 83.3 µM (inactive)

## COC(=O)c1ccc(N2NC(=O)/C(=C/c3ccc(-c4ccc(Cl)c(C(=O)O)c4)o3)C2=O)cc1
[7]
  IC50: 28.6 µM (active)
[8]
  EC50: > 150 µM (inconclusive)
[9]
  IC50: 75.8 µM (active)
[10]
  EC50: > 38 µM (not active)
[11]
  IC50: 2.15 µM (active)
[12]
  IC50: 11.9 µM (active)
